{"source": "patent US20080171716A1", "about": "“NUCLEIC ACID MODULATION OF TOLL-LIKE RECEPTOR-MEDIATED IMMUNE STIMULATION” (Protiva Biotherapeutics, Inc., priority 2006, published 2008)", "molecular_target": "T1, TLR9 (Homo sapiens, UniProt Q9NR96)", "T1 construct": "these experiments were repeated in human PBMC cultures; endogenous in cells; host or cells: primary human PBMCs", "T1 sequence (Q9NR96 26-1032)": "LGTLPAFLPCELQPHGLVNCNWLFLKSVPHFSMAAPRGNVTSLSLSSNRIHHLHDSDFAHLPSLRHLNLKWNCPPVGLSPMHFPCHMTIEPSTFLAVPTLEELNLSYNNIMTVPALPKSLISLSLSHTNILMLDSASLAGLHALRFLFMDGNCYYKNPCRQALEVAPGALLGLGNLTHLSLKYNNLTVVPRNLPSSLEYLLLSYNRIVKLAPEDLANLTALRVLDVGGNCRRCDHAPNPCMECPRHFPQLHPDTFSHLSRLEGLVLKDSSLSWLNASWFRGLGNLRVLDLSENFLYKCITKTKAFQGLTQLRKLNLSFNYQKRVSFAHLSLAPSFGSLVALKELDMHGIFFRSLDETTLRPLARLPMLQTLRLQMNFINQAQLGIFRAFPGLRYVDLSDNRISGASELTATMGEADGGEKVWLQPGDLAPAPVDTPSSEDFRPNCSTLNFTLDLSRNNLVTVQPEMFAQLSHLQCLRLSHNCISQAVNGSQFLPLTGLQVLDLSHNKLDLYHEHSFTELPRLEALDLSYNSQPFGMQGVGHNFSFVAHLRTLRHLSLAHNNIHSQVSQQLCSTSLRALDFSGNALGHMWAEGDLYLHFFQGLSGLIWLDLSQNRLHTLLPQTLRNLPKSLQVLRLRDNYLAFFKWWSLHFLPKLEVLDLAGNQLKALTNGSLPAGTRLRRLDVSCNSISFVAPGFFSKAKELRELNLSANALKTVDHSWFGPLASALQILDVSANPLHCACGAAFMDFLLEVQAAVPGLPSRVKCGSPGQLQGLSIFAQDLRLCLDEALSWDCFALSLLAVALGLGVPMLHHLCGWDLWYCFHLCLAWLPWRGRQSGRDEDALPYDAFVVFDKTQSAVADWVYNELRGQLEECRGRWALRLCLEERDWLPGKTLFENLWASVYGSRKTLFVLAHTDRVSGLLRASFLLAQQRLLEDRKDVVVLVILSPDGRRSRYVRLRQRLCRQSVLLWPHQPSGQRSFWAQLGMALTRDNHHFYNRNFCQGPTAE", "assay": "CpG ODN (TLR9 agonist)-induced cytokine production in human PBMCs", "type": "cell-based", "method": "All RNA molecules used in this study were heated at 90° C. for 3 min. and then placed at 37° C. for 60 min. Non-denaturing PAGE analysis on a 20% polyacrylamide gel was performed to confirm that ssRNA molecules were intact and that no duplexes had formed upon heating. The RNA molecules were encapsulated in a SNALP formulation comprising PEG-cDMA:DLinDMA:cholesterol:DSPC in a 2:40:48:10 mol % ratio (2:40 SNALP), prepared using a syringe press process.\nFresh human peripheral blood mononuclear cells (PBMCs) were isolated and seeded at about 3×10^5 cells/well in a total volume of 180 μl. Next, 20 μl of the appropriate SNALP diluted in PBS or 10 μl of naked TLR agonist were added to the PBMCs. For time course experiments, PBMCs were pretreated with UmodS ssRNA or a control and the appropriate naked TLR agonist was added at 0, 0.5, or 2 hours after pretreatment. When the SNALP and naked TLR agonist were added separately, the SNALP was added first followed by the naked TLR agonist. At t=24 hr., the cell supernatant was harvested and IFN-α and/or IL-6 levels were determined using ELISA.\nLipid Encapsulation of RNA and ODN. RNA or ODN were encapsulated in liposomes by a process of spontaneous vesicle formation as described in Judge et al., supra, and Jeffs et al., Pharm. […]\nCytokine ELISA. All cytokines were quantified using sandwich ELISA kits according to the manufacturer's instructions. […]", "note": "m = 2'-O-methyl; r = 2'-OH (RNA)"}
{"substance": "Luc UmodS: Luc sense strand ssRNA with 2′OMe at uridines: GAmUmUAmUGmUCCGGmUmUAmUGmUAUU (sense GAUUAUGUCCGGUUAUGUAUU; sugars from the 5' end rrmmrmrmrrrrmmrmrmrrr, backbone not given here)", "values": [{"measurement": "IL-6 levels induced by naked ODN2006 (TLR9 agonist, phosphorothioate CpG Type B)", "setting": "human PBMCs pretreated with SNALP-encapsulated ssRNA", "value": "no reduction"}, {"measurement": "level of IFN-α induced by naked ODN2216 (TLR9 agonist, phosphorothioate CpG Type A)", "setting": "human PBMCs, SNALP-encapsulated ssRNA plus naked ODN", "value": "increased"}]}
